Source: patent US11884676B2, “Substituted pyrimido[1,2-b]pyridazines as positive allosteric modulators of the muscarinic acetylcholine receptor M4” (Vanderbilt University, priority 2020, dated 2024)

Target: T1, Human M4 (Homo sapiens, UniProt P08173)
T1 construct: expressed in transfected cells
T1 sequence (P08173 1-479): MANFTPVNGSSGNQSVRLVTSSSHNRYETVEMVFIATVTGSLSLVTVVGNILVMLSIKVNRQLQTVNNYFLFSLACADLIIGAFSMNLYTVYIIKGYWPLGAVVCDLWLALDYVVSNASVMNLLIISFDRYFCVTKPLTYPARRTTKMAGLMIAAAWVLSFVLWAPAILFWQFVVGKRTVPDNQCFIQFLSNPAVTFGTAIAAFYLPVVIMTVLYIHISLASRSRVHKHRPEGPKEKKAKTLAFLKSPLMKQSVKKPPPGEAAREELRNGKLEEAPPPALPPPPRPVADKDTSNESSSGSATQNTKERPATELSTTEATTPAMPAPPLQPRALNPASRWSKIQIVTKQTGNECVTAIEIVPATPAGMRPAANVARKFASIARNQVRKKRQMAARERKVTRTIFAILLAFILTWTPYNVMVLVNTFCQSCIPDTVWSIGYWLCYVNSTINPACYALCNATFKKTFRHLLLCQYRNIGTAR
Experiment: mAChR M4 cell-based functional assay (calcium flux, PAM mode)
Design: Emax: dose or concentration left out as unconfirmed
Settings: for Emax at 30 µM: CHO-K1, % ACh maximum at 30 μM; for Emax at 30 µM / EC50: hM4-Gqi5 CHO-K1 cells; for EC50: concentration-dependent increase in the EC20 acetylcholine response
Method: Human and rat M4 cDNAs, along with the chimeric G protein Gqi5, were transfected into Chinese hamster ovary (CHO-K1) cells purchased from the American Type Culture Collection using Lipofectamine2000. hM4-Gqi5 cells were grown in Ham's F-12 medium containing 10% heat-inactivated fetal bovine serum (FBS), 20 mM HEPES, 50 μg/mL G418 sulfate, and 500 μg/mL Hygromycin B. rM4-Gqi5 cells were grown in DMEM containing 10% heat-inactivated FBS, 20 mM HEPES, 400 μg/mL G418 sulfate, and 500 μg/mL Hygromycin B.
For high throughput measurement of agonist-evoked increases in intracellular calcium, CHO-K1 cells stably expressing muscarinic receptors were plated in growth medium lacking G418 and hygromycin at 15,000 cells/20 μL/well in Greiner 384-well black-walled, tissue culture (TC)-treated, clear-bottom plates (VWR). Cells were incubated overnight at 37° C. and 5% CO2. The next day, cells were washed using an ELX 405 (BioTek) with assay buffer; the final volume was then aspirated to 20 μL. Next, 20 μL of a 2.3 μM stock of Fluo-4/acetoxymethyl ester (Invitrogen, Carlsbad, CA), prepared as a 2.3 mM stock in DMSO and mixed in a 1:1 ratio with 10% (w/v) Pluronic F-127 and diluted in assay buffer, was added to the wells and the cell plates were incubated for 50 min at 37° C. and 5% CO2. Dye was removed by washing with the ELX 405 and the final volume was aspirated to 20 μL. Compound master plates were formatted in an 11 point concentration-response curve (CRC) format (1:3 dilutions) in 100% DMSO with a starting concentration of 10 mM using a BRAVO liquid handler (Agilent). Test compound CRCs were then transferred to daughter plates (240 nL) using the Echo acoustic plate reformatter (Labcyte, Sunnyvale, CA) and then diluted into assay buffer (40 μL) to a 2× stock using a Thermo Fisher Combi (Thermo Fisher Scientific, Waltham, MA).
Calcium flux was measured using the Functional Drug Screening System (FDSS) 6000 or 7000 (Hamamatsu Corporation, Tokyo, Japan) as an increase in the fluorescent static ratio. Compounds were applied to cells (20 μL, 2×) using the automated system of the FDSS at 2-4 seconds into the protocol and the data were collected at 1 Hz. At 144 seconds, 10 μL of an EC20 concentration of the muscarinic receptor agonist acetylcholine was added (5×), followed by the addition of 12 μL of an EC80 concentration of acetylcholine at the 230 second time point (5×). Agonist activity was analyzed as a concentration-dependent increase in calcium mobilization upon compound addition. Positive allosteric modulator activity was analyzed as a concentration-dependent increase in the EC20 acetylcholine response. Antagonist activity was analyzed as a concentration-dependent decrease in the EC80 acetylcholine response. Concentration-response curves were generated using a four-parameter logistical equation in XLFit curve fitting software (IDBS, Bridgewater, NJ) for Excel (Microsoft, Redmond, WA) or Prism (GraphPad Software, Inc., San Diego, CA).
Compounds were synthesized as described above. Activity (EC50 and Emax) was determined in the mAChR M4 cell-based functional assay as described above and the data are shown in Table 2. The compound number corresponds to the compound numbers used in Examples 1 to 11 and Tables 1.

| Emax at 30 µM [%] | EC50 [nM] | SMILES | Emax (CHO-K1, read-out: Human M4 Emax (%)*) [%] |
| --- | --- | --- | --- |
| 106 | 162 | [2H]C1([2H])Oc2ccc(O[C@H]3CCN(c4nn5c(=O)cc(COC)nc5c(C)c4C)C[C@@H]3F)cc2OC1([2H])[2H] [Compound 120, 7-((3S,4S)-4-((2,3-dihydrobenzo[b][1,4]dioxin-6-yl-2,2,3,3-d4)oxy)-3-fluoropiperidin-1-yl)-2-(methoxymethyl)-8,9-dimethyl-4H-pyrimido[1,2-b]pyridazin-4-one] | – |
| 82 | 32 | Cc1cc2ncc(Cl)c(=O)n2nc1N1CCC(Oc2ccc3c(c2)OCCO3)CC1 [Compound 31, 3-chloro-7-(4-((2,3-dihydrobenzo[b][1,4]dioxin-6-yl)oxy)piperidin-1-yl)-8-methyl-4H-pyrimido[1,2-b]pyridazin-4-one] | – |
| 86 | 141 | Cc1c(N2CCC(Oc3ccc(F)cc3)CC2)nn2c(=O)cc(C(F)F)nc2c1C [Compound 84, 2-(difluoromethyl)-7-(4-(4-fluorophenoxy)piperidin-1-yl)-8,9-dimethyl-4H-pyrimido[1,2-b]pyridazin-4-one] | – |
| 103 | 59 | Cc1c(N2CCC(Oc3ccc4c(c3)OCCO4)CC2)nn2c(=O)cc(C(C)C)nc2c1C [Compound 12, 7-(4-((2,3-Dihydrobenzo[b][1,4]dioxin-6-yl)oxy)piperidin-1-yl)-2-isopropyl-8,9-dimethyl-4H-pyrimido[1,2-b]pyridazin-4-one] | – |
| 70 | 1070 | CCCc1ccc(OC2CCN(c3nn4c(=O)ccnc4cc3C)CC2)cc1 [Compound 91, 8-methyl-7-(4-(4-propylphenoxy)piperidin-1-yl)-4H-pyrimido[1,2-b]pyridazin-4-one] | – |
| 111 | 42 | [2H]C1([2H])Oc2ccc(O[C@@H]3CCN(c4nn5c(=O)cc(COC)nc5c(C)c4C)C[C@@H]3F)cc2OC1([2H])[2H] [Compound 121, 7-((3S,4R)-4-((2,3-dihydrobenzo[b][1,4]dioxin-6-yl-2,2,3,3-d4)oxy)-3-fluoropiperidin-1-yl)-2-(methoxymethyl)-8,9-dimethyl-4H-pyrimido[1,2-b]pyridazin-4-one] | – |
| 81 | 51 | [2H]C1(Oc2ccc3c(c2)OC([2H])([2H])C([2H])([2H])O3)CCN(c2nn3c(=O)c(C)c(C)nc3cc2C)CC1 [Compound 47, 7-(4-((2,3-dihydrobenzo[b][1,4]dioxin-6-yl-2,2,3,3-d4)oxy)piperidin-1-yl-4-d)-2,3,8-trimethyl-4H-pyrimido[1,2-b]pyridazin-4-one] | – |
| 88 | 52 | [2H]C1(Oc2ccc3c(c2)OCO3)CCN(c2nn3c(=O)cc(C)nc3cc2C)CC1 [Compound 58, 7-(4-(benzo[d][1,3]dioxol-5-yloxy)piperidin-1-yl-4-d)-2,8-dimethyl-4H-pyrimido[1,2-b]pyridazin-4-one] | – |
| 111 | 115 | [2H]C1(Oc2ccc3c(c2)OC([2H])([2H])C([2H])([2H])O3)CCN(c2nn3c(=O)ccnc3cc2C)CC1 [Compound 39, 7-(4-((2,3-dihydrobenzo[b][1,4]dioxin-6-yl-2,2,3,3-d4)oxy)piperidin-1-yl-4-d)-8-methyl-4H-pyrimido[1,2-b]pyridazin-4-one] | – |
| 97 | 20 | [2H]C1(Oc2ccc3c(c2)OC([2H])([2H])C([2H])([2H])O3)CCN(c2nn3c(=O)ccnc3c(C)c2C)CC1 [Compound 69, 7-(4-((2,3-dihydrobenzo[b][1,4]dioxin-6-yl-2,2,3,3-d4)oxy)piperidin-1-yl-4-d)-8,9-dimethyl-4H-pyrimido[1,2-b]pyridazin-4-one] | – |
| 94 | 16 | [2H]C1([2H])Oc2ccc(O[C@@H]3CCN(c4nn5c(=O)cc(C)nc5cc4C)C[C@H]3F)cc2OC1([2H])[2H] [Compound 51, 7-((3R,4R)-4-((2,3-dihydrobenzo[b][1,4]dioxin-6-yl-2,2,3,3-d4)oxy)-3-fluoropiperidin-1-yl)-2,8-dimethyl-4H-pyrimido[1,2-b]pyridazin-4-one] | – |
| 90 | 64 | [2H]C1(Oc2ccc3c(c2)OC([2H])([2H])C([2H])([2H])O3)CCN(c2nn3c(=O)cc(CC)nc3c(C)c2C)CC1 [Compound 98, 7-(4-((2,3-dihydrobenzo[b][1,4]dioxin-6-yl-2,2,3,3-d4)oxy)piperidin-1-yl-4-d)-2-ethyl-8,9-dimethyl-4H-pyrimido[1,2-b]pyridazin-4-one] | – |
| 93 | 10 | [2H]C1(Oc2ccc3c(c2)OCCO3)CCN(c2nn3c(=O)cc(C(F)(F)F)nc3cc2C)CC1 [Compound 49, 7-(4-((2,3-dihydrobenzo[b][1,4]dioxin-6-yl)oxy)piperidin-1-yl-4-d)-8-methyl-2-(trifluoromethyl)-4H-pyrimido[1,2-b]pyridazin-4-one] | – |
| 99 | 47 | [2H]C1(Oc2ccc3c(c2)OCCO3)CCN(c2nn3c(=O)cc(C)nc3cc2C)CC1 [Compound 62, 7-(4-((2,3-dihydrobenzo[b][1,4]dioxin-6-yl)oxy)piperidin-1-yl-4-d)-2,8-dimethyl-4H-pyrimido[1,2-b]pyridazin-4-one] | – |
| 94 | 170 | [2H]C1(Oc2ccc3c(c2)OC([2H])([2H])C([2H])([2H])O3)CCN(c2nn3c(=O)ccnc3c(C)c2COC)CC1 [Compound 102, 7-(4-((2,3-dihydrobenzo[b][1,4]dioxin-6-yl-2,2,3,3-d4)oxy)piperidin-1-yl-4-d)-8-(methoxymethyl)-9-methyl-4H-pyrimido[1,2-b]pyridazin-4-one] | – |
| 90 | 296 | Cc1cc2nccc(=O)n2nc1N1CCC(Oc2ccc(F)cc2)CC1 [Compound 25, 7-(4-(4-fluorophenoxy)piperidin-1-yl)-8-methyl-4H-pyrimido[1,2-b]pyridazin-4-one] | – |
| 87 | 1410 | [2H]C1(Oc2ccc3c(c2)OC([2H])([2H])C([2H])([2H])O3)CCN(c2nn3c(=O)ccnc3c(C)c2C2CC2)CC1 [Compound 104, 8-cyclopropyl-7-(4-((2,3-dihydrobenzo[b][1,4]dioxin-6-yl-2,2,3,3-d4)oxy)piperidin-1-yl-4-d)-9-methyl-4H-pyrimido[1,2-b]pyridazin-4-one] | – |
| 95 | 22 | COCc1cc(=O)n2nc(N3CCC(Oc4ccc5c(c4)OCCO5)CC3)c(C)c(C)c2n1 [Compound 13, 7-(4-((2,3-Dihydrobenzo[b][1,4]dioxin-6-yl)oxy)piperidin-1-yl)-2-(methoxymethyl)-8,9-dimethyl-4H-pyrimido[1,2-b]pyridazin-4-one] | – |

| SMILES | Emax at 30 µM [%] | EC50 [nM] | Emax (CHO-K1, read-out: Human M4 Emax (%)*) [%] |
| --- | --- | --- | --- |
| Cc1c(N2CCC(Oc3ccc4c(c3)OCCO4)CC2)nn2c(=O)ccnc2c1N1CCC1 [Compound 127, 9-(Azetidin-1-yl)-7-(4-((2,3-dihydrobenzo[b][1,4]dioxin-6-yl)oxy)piperidin-1-yl)-8-methyl-4H-pyrimido[1,2-b]pyridazin-4-one] | – | 1600 | 58 |
